± gives the expanded uncertainty stated by the source.
Assay: Molar enthalpy of transition or fusion
Conditions: Crystal; DSC

Nc1ccc(N)c([N+](=O)[O-])c1 [2-nitro-1,4-benzenediamine]
Molar enthalpy of transition or fusion: 3.92 ± 0.21 kcal/mol

— the NIST ThermoML archive (doi:10.1016/j.jct.2017.01.006)
